From US20170198006A1, “PRMT5 INHIBITORS AND USES THEREOF” (Epizyme, Inc., priority 2014, published 2017)

Tests used:
[1] = target: T1, PRMT5/MEP50 (Homo sapiens, UniProt O14744); assay: PRMT5 Biochemical Assay (PRMT5/MEP50 enzyme assay on histone H4 peptide substrate, 3H-SAM Flashplate); conditions: PRMT5 biochemical assay; read-out: Biochemical IC50
T1 construct: Flag-PRMT5; made in house; host or cells: Spodoptera frugiperda (SF9), baculovirus
Procedure, shortened: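 Sf9-expressed Flag-PRMT5/6His-MEP50 preincubated with compound 30 min at 25 °C, then methylation of biotinylated H4 1-15 peptide started with ³H-SAM in 20 mM Bicine pH 7.6, 1 mM TCEP, 0.005% BSG, 0.002% Tween20.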

[2] = system: symmetric di-methyl arginine in Z-138 cells; assay: Z-138 Methylation Assay (In Cell Western for symmetric di-methyl arginine and DNA content); assay type: cell-based; conditions: Homo sapiens, read-out: ICW EC50
Source text: Z-138 suspension cells were purchased from ATCC (American Type Culture Collection, Manassas, Va.). RPMI/Glutamax medium, penicillin-streptomycin, heat inactivated fetal bovine serum, and D-PBS were purchased from Life Technologies, Grand Island, N.Y., USA. Odyssey blocking buffer, 800CW goat anti-rabbit IgG (H+L) antibody, and Licor Odyssey infrared scanner were purchased from Licor Biosciences, Lincoln, Nebr., USA. Symmetric di-methyl arginine antibody was purchased from EMD Millipore, Billerica, Mass., USA. 16% Paraformaldehyde was purchased from Electron Microscopy Sciences, Hatfield, Pa., USA.
Z-138 suspension cells were maintained in growth medium (RPMI 1640 supplemented with 10% v/v heat inactivated fetal bovine serum and 100 units/mL penicillin-streptomycin) and cultured at 37° C. under 5% CO2.
Cell Treatment, in Cell Western (ICW) for Detection of Symmetric Di-Methyl Arginine and DNA Content.
Z-138 cells were seeded in assay medium at a concentration of 50,000 cells per mL to a 384-well cell culture plate with 50 μL per well. Compound (100 nL) from 384 well source plates was added directly to 384 well cell plate. Plates were incubated at 37° C., 5% CO2 for 96 hours. After four days of incubation, 40 μL of cells from incubated plates were added to poly-D-lysine coated 384 well culture plates (BD Biosciences 356697). Plates were incubated at room temperature for 30 minutes then incubated at 37° C., 5% CO2 for 5 hours. After the incubation, 40 μL per well of 8% paraformaldehyde in PBS (16% paraformaldahyde was diluted to 8% in PBS) was added to each plate and incubated for 30 minutes. Plates were transferred to a Biotek 405 plate washer and washed 5 times with 100 μL per well of wash buffer (1×PBS with 0.1% Triton X-100 (v/v)). Next 30 μL per well of Odyssey blocking buffer were added to each plate and incubated 1 hour at room temperature. Blocking buffer was removed and 20 μL per well of primary antibody was added (symmetric di-methyl arginine diluted 1:100 in Odyssey buffer with 0.1% Tween 20 (v/v)) and plates were incubated overnight (16 hours) at 4° C. Plates were washed 5 times with 100 μL per well of wash buffer. Next 20 μL per well of secondary antibody was added (1:200 800CW goat anti-rabbit IgG (H+L) antibody, 1:1000 DRAQ5 (Biostatus limited) in Odyssey buffer with 0.1% Tween 20 (v/v)) and incubated for 1 hour at room temperature. The plates were washed 5 times with 100 μL per well wash buffer then 1 time with 100 μL per well of water. Plates were allowed to dry at room temperature then imaged on the Licor Odyssey machine which measures integrated intensity at 700 nm and 800 nm wavelengths. Both 700 and 800 channels were scanned.
First, the ratio for each well was determined by:
Each plate included fourteen control wells of DMSO only treatment (minimum inhibition) as well as fourteen control wells for maximum inhibition treated with 3 μM of a reference compound (Background wells). The average of the ratio values for each control type was calculated and used to determine the percent inhibition for each test well in the plate. Reference compound was serially diluted three-fold in DMSO for a total of nine test concentrations, beginning at 3 μM. Percent inhibition was determined and IC50 curves were generated using triplicate wells per concentration of compound.

[3] = system: Z-138 cells; assay: Z-138 Proliferation Assay (Cell Titer Glo, 5 days); assay type: cell-based; conditions: Homo sapiens, 120 h
Source text: Z-138 Proliferation Assay
Z-138 suspension cells were purchased from ATCC (American Type Culture Collection, Manassas, Va.). RPMI/Glutamax medium, penicillin-streptomycin, heat inactivated fetal bovine serum were purchased from Life Technologies, Grand Island, N.Y., USA. V-bottom polypropylene 384-well plates were purchased from Greiner Bio-One, Monroe, N.C., USA. Cell culture 384-well white opaque plates were purchased from Perkin Elmer, Waltham, Mass., USA. Cell-Titer Glo® was purchased from Promega Corporation, Madison, Wis., USA. SpectraMax M5 plate reader was purchased from Molecular Devices LLC, Sunnyvale, Calif., USA.
Z-138 suspension cells were maintained in growth medium (RPMI 1640 supplemented with 10% v/v heat inactivated fetal bovine serum and cultured at 37° C. under 5% CO2. Under assay conditions, cells were incubated in assay medium (RPMI 1640 supplemented with 10% v/v heat inactivated fetal bovine serum and 100 units/mL penicillin-streptomycin) at 37° C. under 5% CO2.
For the assessment of the effect of compounds on the proliferation of the Z-138 cell line, exponentially growing cells were plated in 384-well white opaque plates at a density of 10,000 cells/ml in a final volume of 50 μl of assay medium. A compound source plate was prepared by performing triplicate nine-point 3-fold serial dilutions in DMSO, beginning at 10 mM (final top concentration of compound in the assay was 20 μM and the DMSO was 0.2%). A 100 nL aliquot from the compound stock plate was added to its respective well in the cell plate. […] After addition of compounds, assay plates were incubated for 5 days at 37° C., 5% CO2, relative humidity >90%.
Cell viability was measured by quantitation of ATP present in the cell cultures, adding 35 μl of Cell Titer Glo® reagent to the cell plates. Luminescence was read in the SpectraMax M5 microplate reader. The concentration of compound inhibiting cell viability by 50% was determined using a 4-parametric fit of the normalized dose response curves.

T1 sequence (O14744 with tags, fused parts or gaps): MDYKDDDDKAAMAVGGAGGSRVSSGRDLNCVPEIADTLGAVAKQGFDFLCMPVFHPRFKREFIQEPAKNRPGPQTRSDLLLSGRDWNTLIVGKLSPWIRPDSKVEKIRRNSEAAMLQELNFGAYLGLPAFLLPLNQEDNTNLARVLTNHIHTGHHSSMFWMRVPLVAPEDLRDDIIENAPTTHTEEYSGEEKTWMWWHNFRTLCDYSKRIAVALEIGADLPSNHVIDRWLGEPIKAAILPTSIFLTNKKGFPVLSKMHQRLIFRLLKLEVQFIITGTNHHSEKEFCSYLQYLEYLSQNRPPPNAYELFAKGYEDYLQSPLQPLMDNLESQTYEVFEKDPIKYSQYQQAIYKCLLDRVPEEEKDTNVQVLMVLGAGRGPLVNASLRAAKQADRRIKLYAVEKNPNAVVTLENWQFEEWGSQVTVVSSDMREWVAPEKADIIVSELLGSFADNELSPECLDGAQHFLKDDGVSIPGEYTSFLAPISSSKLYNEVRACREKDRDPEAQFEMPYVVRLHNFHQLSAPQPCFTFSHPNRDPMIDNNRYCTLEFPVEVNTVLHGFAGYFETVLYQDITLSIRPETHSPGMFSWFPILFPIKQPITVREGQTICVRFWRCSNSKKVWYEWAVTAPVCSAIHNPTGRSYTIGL
T1 sequence (Q9BQA1 with tags, fused parts or gaps partner limits assumed): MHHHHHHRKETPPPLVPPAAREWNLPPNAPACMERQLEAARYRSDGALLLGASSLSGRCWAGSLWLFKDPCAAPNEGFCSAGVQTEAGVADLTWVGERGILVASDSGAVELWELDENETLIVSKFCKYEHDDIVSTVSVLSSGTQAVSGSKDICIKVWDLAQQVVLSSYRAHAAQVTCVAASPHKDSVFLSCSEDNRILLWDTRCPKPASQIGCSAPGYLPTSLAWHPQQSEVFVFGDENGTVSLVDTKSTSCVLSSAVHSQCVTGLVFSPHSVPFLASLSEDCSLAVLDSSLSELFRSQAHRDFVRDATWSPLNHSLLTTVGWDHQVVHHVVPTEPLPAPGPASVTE

| IC50 [1] [nM] | EC50 [2] [nM] | SMILES | EC50 [3] [nM] |
| --- | --- | --- | --- |
| 1000 to 10000 | > 20000 | CC(=O)c1ccc(NC(=O)CC2NC(N3CCN(Cc4ccccc4)CC3)=NC2=O)cc1 (stereo not drawn) [Compound 3-14] | > 20000 |
| 101 to 1000 | 101 to 1000 | Cc1ccccc1N1CC(NS(=O)(=O)c2cccc3c(N(C)C)cccc23)CC1=O (stereo not drawn) [Compound 4-4] | 10000 to 50000 |
| < 100 | < 100 | CC(C)(C)C(=O)N1CCN(c2nc(NC3COC3)cc(C(=O)NC[C@H](O)CN3CCc4ccccc4C3)n2)CC1 [Compound 4-9] | < 100 |
| 101 to 1000 | 101 to 1000 | O=C(NC[C@H](O)CN1Cc2ccccc2C1)c1cc(NC2CNC2)ncn1 [Compound 4-11] | > 1000 |
| 10000 to 50000 | > 1000 | COc1ccc(Cn2c(CN3CCCCC3)cnc2CN)cc1 [Compound 4-13] | > 5000 |
| < 100 | 101 to 1000 | CN(C)c1cccc2c(S(=O)(=O)NC3CC(=O)N(c4ccccc4F)C3)cccc12 (stereo not drawn) [Compound 5-4] | 1000 to 10000 |
| < 100 | 101 to 1000 | CN(C)c1cccc2c(S(=O)(=O)NC[C@@H](N)Cc3ccccc3)cccc12 [Compound 5-7, (S)—N-(2-amino-3-phenylpropyl)-5-(dimethylamino)naphthalene-1-sulfonamide] | 1000 to 10000 |
| < 100 | < 100 | CN1CCC(Nc2ccnc(C(=O)NC[C@H](O)CN3CCc4ccccc4C3)c2)CC1 [Compound 5-9] | > 5000 |
| < 100 | 101 to 1000 | CC(=O)N1CC(Nc2cc(C(=O)NC[C@H](O)CN3Cc4ccccc4C3)ncn2)C1 [Compound 5-11] | 1000 to 10000 |
| 101 to 1000 | 101 to 1000 | CC(=O)N1CC(Nc2cc(C(=O)NCC(C)(O)CN3CCc4ccccc4C3)ncn2)C1 (stereo not drawn) [Compound 6-9] | > 5000 |
| 101 to 1000 | 101 to 1000 | O=C(NC[C@H](O)CN1Cc2ccccc2C1)c1cncc(NC2CCN(CC(F)(F)F)CC2)c1 [Compound 6-11] | 10000 to 50000 |
| 10000 to 50000 | > 1000 | NCc1nccn1Cc1cccc(Br)c1 [Compound 6-13] | > 5000 |
| < 100 | < 100 | CN(C)c1cccc2c(S(=O)(=O)NC3CC(=O)N(c4ccccc4N)C3)cccc12 (stereo not drawn) [Compound 7-4] | 1000 to 10000 |
| < 100 | < 100 | CC(=O)N1CC(Nc2cc(C(=O)NC[C@@H](O)CN3CCc4ccccc4C3)ncn2)C1 [Compound 7-9] | 1000 to 10000 |
| 101 to 1000 | 101 to 1000 | O=C(NC[C@H](O)CN1Cc2ccccc2C1)c1cncc(NC2CCOCC2)c1 [Compound 7-11] | 1000 to 10000 |
| 101 to 1000 | 1000 to 10000 | CN(C)c1cccc2c(S(=O)(=O)NC3CC(=O)N(c4ccccc4Cl)C3)cccc12 (stereo not drawn) [Compound 8-4] | 10000 to 50000 |
| 101 to 1000 | < 100 | CC(=O)N1CC(Nc2cc(C(=O)N(C)C[C@H](O)CN3CCc4ccccc4C3)ncn2)C1 [Compound 8-9] | 1000 to 10000 |

| IC50 [1] [nM] | EC50 [2] [nM] | SMILES | EC50 [3] [nM] |
| --- | --- | --- | --- |
| < 100 | < 100 | O=C(NC[C@H](O)CN1Cc2ccccc2C1)c1cc(NC2COC2)nc(N2CCOCC2)n1 [Compound 8-11] | 1000 to 10000 |
| < 100 | 101 to 1000 | CC(=O)N1CCC(Nc2cc(C(=O)N(C)C[C@H](O)CN3CCc4ccccc4C3)ncn2)CC1 [Compound 9-9] | 101 to 1000 |
| 101 to 1000 | 101 to 1000 | O=C(NC[C@H](O)CN1Cc2ccccc2C1)c1cncc(NC2CCN(CC(F)(F)F)C2)c1 (stereo partly drawn) [Compound 9-11] | > 20000 |
| < 100 | < 100 | CC(=O)N1CCC(Nc2cc(C(=O)N(C)C[C@H](O)CN3CCc4ccccc4C3)ccn2)CC1 [Compound 10-9] | 101 to 1000 |
| < 100 | < 100 | CC(=O)N1CCC(Nc2cc(C(=O)NC(C)C(O)CN3CCc4ccccc4C3)ccn2)CC1 (stereo not drawn) [Compound 11-9] | 101 to 1000 |
| < 100 | < 100 | CC(=O)N1CCC(Nc2cc(C(=O)NCC(C)(O)CN3CCc4ccccc4C3)ccn2)CC1 (stereo not drawn) [Compound 12-9] | 1000 to 10000 |
| 101 to 1000 | > 20000 | O=C(CC1NC(N2CCc3ccccc3C2)=NC1=O)Nc1ccc(Oc2ccccc2)cc1 (stereo not drawn) [Compound 12-14] | > 20000 |
| 101 to 1000 | 101 to 1000 | CC(=O)N1CCC(Nc2cc(C(=O)NC[C@@H](O)CN3CCc4ccccc4C3(C)C)ccn2)CC1 [Compound 13-9] | 1000 to 10000 |
| < 100 | 1000 to 10000 | CN(C)c1cccc2c(S(=O)(=O)NC3CCN(Cc4ccccc4)CC3)cccc12 [Compound 14-3] | > 20000 |
| < 100 | < 100 | O=C(NC[C@H](O)CN1CCc2ccccc2C1)c1cc(NC2CN(C(=O)C3CCC3)C2)ncn1 [Compound 14-9] | < 100 |
| 101 to 1000 | > 20000 | CCOc1c(C)cc(S(=O)(=O)NCC2CCN(Cc3cc4cc(OC)ccc4nc3Cl)CC2)cc1C [Compound 15-3] | > 20000 |
| 101 to 1000 | 1000 to 10000 | CCOC(=O)c1ccc(NC(=O)CC2NC(N3CCN(c4ccccc4)CC3)=NC2=O)cc1 (stereo not drawn) [Compound 20-14] | > 20000 |
| 101 to 1000 | > 20000 | O=C(CC1NC(N2CCN(Cc3ccccc3)CC2)=NC1=O)Nc1ccc(Cl)cc1 (stereo not drawn) [Compound 22-14] | > 20000 |
| < 100 | 101 to 1000 | Cn1cnc2ccc(-c3cccc(OCC(O)CN4CCc5ccccc5C4)c3)cc21 (stereo not drawn) [Compound 23-9] | > 1000 |
| 101 to 1000 | 101 to 1000 | O=C(NC[C@@H](O)CN1CCc2ccccc2C1)c1cccc(NC2CCOCC2)c1 [Compound 24-9] | > 5000 |
| < 100 | 1000 to 10000 | Nc1ncnc2c1ncn2[C@@H]1O[C@H](CSCC[C@@H](N)CO)[C@@H](O)[C@H]1O [Compound 92-1, (2S, 3S, 4R, 5R)-2-((((R)-3-amino-4-hydroxybutyl)thio)methyl)-5-(6-amino-9H-purin-9-yl)tetrahydrofuran-3,4-diol] | 10000 to 50000 |
